Measurements taken from publication PMC3350483, “Versatile Toolbox for High Throughput Biochemical and Functional Studies with Fluorescent Fusion Proteins” (PLoS ONE, 2012).
Values belong to the substance of their own block, whether it stands above or below them.

Columns and labels:
[1] = molecular target: GFP-Cbx1 (chromobox homolog 1 fused with an N-terminal GFP-tag) (mouse) (UniProt P83917); experiment: GFP-multiTrap plate binding assay, fluorescence read-out; GFP fusion held on the GFP-multiTrap 96-well plate, blocked with 3% milk; 0.15 µM TAMRA-labeled histone-tail peptide, 20 min at RT, IP buffer (20 mM Tris-HCl pH 7.5, 150 mM NaCl, 0.5 mM EDTA) with 0.05% Tween; ratio of bound peptide over GFP fusion by plate reader
[2] = molecular target: HP1β chromo domain; conditions: bacterially expressed protein; ref [11], [12]; read-out: binding affinities; cited from earlier work
[3] = test system: GFP-Cbx1; experiment: In vitro histone-tail peptide binding assay on GFP-multiTrap; set-up: species or system mouse; conditions: for Binding of GFP-Cbx1 to histone-tail peptide (binding ratios, Figure 2A): 0.15 µM TAMRA-labeled peptide per well, RT 20 min
Method: In the next assay we determined whether this approach is also feasible to quantify binding affinities between GFP-proteins and peptides or DNA. First, we analyzed histone-tail peptide binding specificities of the chromobox homolog 1, Cbx1, fused with a N-terminal GFP-tag using the GFP-multiTrap. GFP-Cbx1 was purified from mammalian cell lysate, as described above, and the bound protein was incubated with TAMRA-labeled histone-tail peptides. A set of 20 different histone-tail peptides (Table 1) was used in technical triplicates in parallel and GFP served as negative control (GFP data is not shown). After removal of unbound substrate the amounts of protein and histone-tail peptide were determined by fluorescence intensity measurements using a micro plate reader. Binding ratios were calculated by dividing the concentration of bound histone-tail peptide by the concentration of GFP fusion (Figure 2A). […] In addition to fluorescent quantification via a micro plate reader, we scanned the TAMRA signals using a Typhoon scanner (Figure 2B). […] These differences could result from different sensitivities of both methods. […] We incubated GFP-Cbx1 with TAMRA-labeled H3K9me3 in parallel with either biotinylated H3K9me3 or H3K9ac histone-tail peptides. […] In contrast, we could not detect a significant difference in binding ratios between di- and trimethylated H3K9 histone tail peptides using a micro plate reader (Figure 2A). One explanation could be the use of different expression systems. While the binding ratios for the HP1β chromo domain were determined using bacterially expressed protein we used a fluorescent fusion protein derived from mammalian cells. […] To determine the binding affinity of GFP-Cbx1 to H3K9me3, we varied the input amount of histone-tail peptide. We plotted the amount of bound histone-tail peptide as a function of total peptide and fitted the values using GraphPad Prism and nonlinear regression (Figure 2D). The amount of bound H3K9me3 histone-tail peptide increases linearly and saturates at approximately 500 nM of input peptide. […] Here, the input amount of protein/substrate was measured in solution, whereas the bound fraction represents one value on the 96-well surface.
For purification, 100 µL or 50 µL precleared cellular lysate for full-area plates or half-area plates, respectively, was added per well and incubated for 2 hours at 4°C on a GFP-multiTrap plate by continuous shaking. After removing the supernatant, wells were washed twice with 100 µL of washing buffer (WB; 20 mM Tris-HCl pH 7.5, 100–300 mM NaCl, 0.5 mM EDTA) and 100 µL of IP or dilution buffer was added for measurement. The amounts of bound protein were determined by fluorescence intensity measurements with a Tecan Infinite M1000 plate reader (Tecan, Austria). Wavelengths for excitation and emission of GFP are 490±10 nm and 511±10 nm, for RFP are 586±5 nm and 608±10 nm and for YFP 525±5 nm and 538±5 nm, respectively. The concentration of proteins was calculated using calibration curves that were determined by measuring the fluorescence signal of known concentrations of purified GFP, RFP and YFP. […] Bound proteins were eluted with 300 mM Glycin pH 2.5 and subsequently buffered with 1 M Tris pH 7.5. Elution fractions were added to SDS-containing sample buffer (referred to as Bound (B)). Bound proteins were visualized by immunoblotting using the anti-GFP mouse monoclonal antibody (Roche, Germany).
The in vitro histone-tail binding assay was performed as described previously. After one-step purification of GFP fusion proteins the wells were blocked with 100 µL 3% milk solved in TBS-T (0.075% Tween) for 30 minutes at 4°C on a plate vortex, shaking gently. After blocking, the wells were equilibrated in 50 µL IP buffer supplemented with 0.05% Tween. […]

[4] = test system: GFP-Cbx1; experiment: Competition assay between TAMRA-labeled H3K9me3 and biotinylated histone-tail peptides; assay type: binding, mouse; conditions: biotinylated peptide added in parallel; Figure 2C; three independent experiments; **P<0.003
Method: In the next assay we determined whether this approach is also feasible to quantify binding affinities between GFP-proteins and peptides or DNA. First, we analyzed histone-tail peptide binding specificities of the chromobox homolog 1, Cbx1, fused with a N-terminal GFP-tag using the GFP-multiTrap. GFP-Cbx1 was purified from mammalian cell lysate, as described above, and the bound protein was incubated with TAMRA-labeled histone-tail peptides. A set of 20 different histone-tail peptides (Table 1) was used in technical triplicates in parallel and GFP served as negative control (GFP data is not shown). After removal of unbound substrate the amounts of protein and histone-tail peptide were determined by fluorescence intensity measurements using a micro plate reader. Binding ratios were calculated by dividing the concentration of bound histone-tail peptide by the concentration of GFP fusion (Figure 2A). […] In addition to fluorescent quantification via a micro plate reader, we scanned the TAMRA signals using a Typhoon scanner (Figure 2B). […] In contrast, we could not detect a significant difference in binding ratios between di- and trimethylated H3K9 histone tail peptides using a micro plate reader (Figure 2A). […] While the binding ratios for the HP1β chromo domain were determined using bacterially expressed protein we used a fluorescent fusion protein derived from mammalian cells. […]

[5] = molecular target: Cbx1 (UniProt P83917); experiment: TAMRA-peptide binding to GFP-multiTrap-immobilised GFP-Cbx1; conditions: reference: H3K9me3 peptide; sites S10
[6] = molecular target: GFP-PBD (green fluorescent PCNA-binding domain of Dnmt1); experiment: GFP-multiTrap plate binding assay, fluorescence read-out; GFP fusion held on the GFP-multiTrap plate, blocked with 3% milk, incubated with HEK293T cellular extract holding the RFP fusion for 30 min at RT; molar ratio of bound RFP fusion over GFP fusion by plate reader
[7] = plate reader, three independent experiments

UniProt P83917, sequence (P83917 whole entry, the tested form may be a part): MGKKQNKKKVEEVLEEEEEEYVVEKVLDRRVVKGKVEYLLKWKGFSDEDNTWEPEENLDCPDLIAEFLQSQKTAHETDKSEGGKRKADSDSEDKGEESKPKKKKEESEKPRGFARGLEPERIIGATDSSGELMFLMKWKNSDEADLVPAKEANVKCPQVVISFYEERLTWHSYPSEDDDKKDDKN

- relative binding ratio (substrate/GFP fusion) [1]: 0.0772
Substance: H3 (1–20) histone-tail peptide, TAMRA-labeled

- Binding of GFP-Cbx1 to histone-tail peptide (binding ratios, Figure 2A) [3, 7]: preferentially binds
- TAMRA signals of bound peptide by Typhoon scanner (Figure 2B) ([3]; fluorescence scanner): detected TAMRA signals
- Input peptide at which bound histone-tail peptide saturates ([3]; varied input of TAMRA-labeled peptide, Figure 2D, nonlinear regression, three independent experiments): approximately 500 nM
Substance: ARTKQTAR X3 S TGGKAPRKQLK [H3K9me3, TAMRA-labeled histone H3 tail peptide, trimethylated Lysine 9]
- Kd [2]: 2.5 µM
- Preference in binding by fluorescence scanner ([3]; fluorescence scanner, no difference seen with micro plate reader): preference for tri- over dimethylated H3K9

- Binding of GFP-Cbx1 to histone-tail peptide (binding ratios, Figure 2A) [3, 7]: prevents binding
Substance: ARTKQTAR X3 Z2 TGGKAPRKQLK [H3K9me3S10p, TAMRA-labeled H3 tail peptide, trimethylated Lysine 9 and phosphorylated Serine 10]

- Effect of competitor on binding of Cbx1 to TAMRA-labeled H3K9me3 [4]: did not alter
Substance: biotinylated H3K9ac: biotinylated H3K9ac histone-tail peptide used as competitor

- binding against the reference [5]: lost
Substance: histone H3 1-20 (from UniProt P68431) H3K9me3S10p peptide

- relative binding ratio (substrate/GFP fusion) [6]: 0.005
Substance: mRFP

- Effect of competitor on binding of Cbx1 to TAMRA-labeled H3K9me3 [4]: significantly decreased
Substance: biotinylated H3K9me3: biotinylated H3K9me3 histone-tail peptide used as competitor

- Binding of Cbx1 with varied input amount of peptide (Figure 2D) ([3]; varied input of TAMRA-labeled peptide, plate reader, two independent experiments for H3): could not detect any binding
Substance: ART K QTARKSTGGKAPRKQLK [H3 (1–20), TAMRA-labeled unmodified histone H3 tail peptide, residues 1–20]

- relative binding ratio (substrate/GFP fusion) [1]: 0.572
Substance: H3K9me3 histone-tail peptide, TAMRA-labeled

- Binding of GFP-Cbx1 to histone-tail peptide (binding ratios, Figure 2A) [3, 7]: preferentially binds
- TAMRA signals of bound peptide by Typhoon scanner (Figure 2B) ([3]; fluorescence scanner): detected TAMRA signals
Substance: ARTKQTAR X2 S TGGKAPRKQLK [H3K9me2, TAMRA-labeled histone H3 tail peptide, dimethylated Lysine 9]
- Kd [2]: 7 µM
